From the NIST ThermoML archive (doi:10.1021/je0501890)
± gives the expanded uncertainty stated by the source.

Experiment: xn = mol fraction of the nth substance listed
Conditions: 101.33 kPa, Liquid

ClC(Cl)C(Cl)Cl [1,1,2,2-tetrachloroethane] + CCCCCCCO
Conditions | mass density, 293.15 K [kg/m3] | mass density, 298.15 K [kg/m3] | mass density, 303.15 K [kg/m3] | viscosity, 293.15 K [mPa·s] | viscosity, 298.15 K [mPa·s] | viscosity, 303.15 K [mPa·s]
x2 = 0.0506 | 1541.06 ± 1.5 | 1533.58 ± 1.5 | 1526.03 ± 1.4 | – | – | –
x2 = 0.0997 | – | – | – | 1.852 ± 0.024 | 1.69 ± 0.022 | 1.547 ± 0.021
x2 = 0.1031 | 1488.84 ± 1.4 | 1481.6 ± 1.4 | 1474.35 ± 1.4 | – | – | –
x2 = 0.1519 | 1442.21 ± 1.3 | 1435.22 ± 1.3 | 1428.22 ± 1.3 | – | – | –
x2 = 0.2003 | 1397.58 ± 1.2 | 1390.83 ± 1.2 | 1384.07 ± 1.2 | – | – | –
x2 = 0.2073 | – | – | – | 2.091 ± 0.028 | 1.907 ± 0.025 | 1.71 ± 0.023
x2 = 0.2515 | 1351.89 ± 1.1 | 1345.42 ± 1.1 | 1338.9 ± 1.1 | – | – | –
x2 = 0.2998 | 1310.19 ± 1.1 | 1303.92 ± 1.1 | 1297.68 ± 1 | – | – | –
x2 = 0.3054 | – | – | – | 2.417 ± 0.031 | 2.187 ± 0.029 | 1.927 ± 0.026
x2 = 0.3445 | – | – | – | 2.558 ± 0.034 | 2.272 ± 0.03 | 2.027 ± 0.027
x2 = 0.3499 | 1268.42 ± 0.99 | 1262.39 ± 0.98 | 1256.35 ± 0.97 | – | – | –
x2 = 0.4085 | – | – | – | 2.833 ± 0.038 | 2.506 ± 0.033 | 2.225 ± 0.03
x2 = 0.4109 | 1219.27 ± 0.92 | 1213.55 ± 0.91 | 1207.77 ± 0.9 | – | – | –
x2 = 0.4464 | 1191.47 ± 0.88 | 1185.87 ± 0.87 | 1180.31 ± 0.86 | – | – | –
x2 = 0.5042 | – | – | – | 3.341 ± 0.044 | 2.908 ± 0.039 | 2.555 ± 0.034
x2 = 0.5113 | 1142.28 ± 0.82 | 1136.96 ± 0.81 | 1131.65 ± 0.8 | – | – | –
x2 = 0.5438 | – | – | – | 3.564 ± 0.047 | 3.101 ± 0.042 | 2.715 ± 0.037
x2 = 0.5524 | 1112.04 ± 0.76 | 1106.9 ± 0.75 | 1101.73 ± 0.74 | – | – | –
x2 = 0.5988 | – | – | – | 3.924 ± 0.052 | 3.392 ± 0.046 | 2.962 ± 0.04
x2 = 0.6013 | 1077.03 ± 0.69 | 1072.05 ± 0.68 | 1067.13 ± 0.68 | – | – | –
x2 = 0.6506 | 1042.68 ± 0.63 | 1037.91 ± 0.62 | 1033.17 ± 0.62 | – | – | –
x2 = 0.6937 | – | – | – | 4.654 ± 0.062 | 3.992 ± 0.054 | 3.429 ± 0.047
x2 = 0.6959 | 1011.91 ± 0.58 | 1007.34 ± 0.58 | 1002.73 ± 0.57 | – | – | –
x2 = 0.7507 | 975.7 ± 0.56 | 971.35 ± 0.56 | 966.91 ± 0.56 | – | – | –
x2 = 0.753 | – | – | – | 5.166 ± 0.069 | 4.389 ± 0.06 | 3.763 ± 0.052
x2 = 0.8001 | 943.88 ± 0.57 | 939.68 ± 0.57 | 935.48 ± 0.57 | – | – | –
x2 = 0.8007 | – | – | – | 5.595 ± 0.074 | 4.737 ± 0.065 | 4.035 ± 0.056
x2 = 0.8505 | 912.27 ± 0.58 | 908.25 ± 0.58 | 904.23 ± 0.59 | – | – | –
x2 = 0.8971 | – | – | – | 6.506 ± 0.087 | 5.365 ± 0.073 | 4.627 ± 0.063
x2 = 0.8979 | 883.17 ± 0.6 | 879.34 ± 0.6 | 875.45 ± 0.61 | – | – | –
x2 = 0.9513 | 851.1 ± 0.63 | 847.45 ± 0.64 | 843.75 ± 0.64 | – | – | –
